Test system: Demodex folliculorum
Test: In vitro killing of live Demodex on epilated eyelashes, observed by light microscopy over 90 minutes
Conditions: for Kill Rate: 90 min observation; for Average Time to Death: value 90 denotes no effect
From the text: In Vitro Activity of Tapinarof Based Formulations in Killing Demodex folliculorum The purpose of this study is to evaluate the effectiveness of a composition comprising Tapinarof in killing Demodex for clinical treatment. […] Following informed consent, one to four lashes with significant cylindrical dandruff were selected for epilation. Lashes were firmly grasped near the base and gently teased out with a slow circular motion to prevent cylindrical dandruff and Demodex from being left behind on the lid margin. Epilated lashes were then placed onto a glass slide and the number of live organisms under light microscopy was then recorded. Lashes with live Demodex were then included in the study. Each lash obtained was then assigned to one of 13 study reagents (Table 1). […] Observation of the study material with the Demodex took place over 90 minutes with checks under light microscopy every five minutes for cessation of Demodex activity. Organism death was recorded when all rotary movement of Demodex appendages ceased. At least five lashes with live Demodex were evaluated for each reagent. Results were recorded in Microsoft Excel and statistical analysis for significant differences in average time to death were done with two-tailed t-test using the same software (Table 1). The value 90 was used to denote no effect.

[1] = reagent at 50%, checks every 5 min
[2] = reagent at 80%, checks every 5 min
[3] = tapinarof 0.1% in 50% isopropyl alcohol
[4] = tapinarof 0.5% in 50% isopropyl alcohol
[5] = tapinarof 1% in 50% isopropyl alcohol

CC(C)=O [Acetone]
Kill Rate [1]: 33% | Average Time to Death (reagent at 50%): 82.5 min | Kill Rate [2]: 29% | Average Time to Death (reagent at 80%): 9.7 min

CC#N [Acetonitrile]
Kill Rate [1]: 88% | Average Time to Death (reagent at 50%): 31.43 min | Kill Rate [2]: 100% | Average Time to Death (reagent at 80%): 5.83 min

CCO [Ethanol]
Kill Rate [1]: 100% | Average Time to Death (reagent at 50%): 33.64 min

CC(C)O [Isopropyl alcohol]
Kill Rate [1]: 0% | Average Time to Death (reagent at 50%): >90 min

CC(C)c1c(O)cc(/C=C/c2ccccc2)cc1O [Tapinarof, 3,5-dihydroxy-4-isopropyl-trans-stilbene]
Kill Rate [3]: 8% | Average Time to Death [3]: 80 min | Kill Rate [4]: 29% | Average Time to Death [4]: 10.82 min | Kill Rate [5]: 33% | Average Time to Death [5]: 60 min | in vitro killing effect against Demodex mites (in words) (tapinarof at the 0.1% concentration (p=0.34)): a significant effect was not observed | in vitro killing effect against Demodex mites (in words) (tapinarof at the 0.5% and 1% concentrations): moderate in vitro killing effect

CCOCCOCCO [Transcutol]
Kill Rate [1]: 100% | Average Time to Death (reagent at 50%): 35 min | Kill Rate [2]: 100% | Average Time to Death (reagent at 80%): 15 min

Reference: US20220071924A1, “TREATMENT OF OCULAR DISEASES WITH OPHTHALMIC TAPINAROF COMPOSITIONS” (Sol-Gel Technologies Ltd., priority 2019, published 2022)
